Results taken from patent US20070072897A1, “Phenylaminopropanol derivatives and methods of their use” (Wyeth, priority 2005, published 2007).
Structures can show the parent of a compound that is named as a salt.

How the values were obtained:
[1] = target: T1, human 5-HT2A receptor (Homo sapiens, UniProt P28223); assay: 5-HT2A FLIPR assay (calcium response to DOI) in CHO cells; assay type: cell-based; conditions: for inhibition at 1 µM: CHO, read-out: 5-HT2A Percentage inhibition at 1 μM; for IC50: antagonist inhibition of 3 nM DOI stimulation, CHO cells, FLIPR
T1 construct: expressed in transfected cells; host or cells: CHO
T1 sequence (P28223 whole entry): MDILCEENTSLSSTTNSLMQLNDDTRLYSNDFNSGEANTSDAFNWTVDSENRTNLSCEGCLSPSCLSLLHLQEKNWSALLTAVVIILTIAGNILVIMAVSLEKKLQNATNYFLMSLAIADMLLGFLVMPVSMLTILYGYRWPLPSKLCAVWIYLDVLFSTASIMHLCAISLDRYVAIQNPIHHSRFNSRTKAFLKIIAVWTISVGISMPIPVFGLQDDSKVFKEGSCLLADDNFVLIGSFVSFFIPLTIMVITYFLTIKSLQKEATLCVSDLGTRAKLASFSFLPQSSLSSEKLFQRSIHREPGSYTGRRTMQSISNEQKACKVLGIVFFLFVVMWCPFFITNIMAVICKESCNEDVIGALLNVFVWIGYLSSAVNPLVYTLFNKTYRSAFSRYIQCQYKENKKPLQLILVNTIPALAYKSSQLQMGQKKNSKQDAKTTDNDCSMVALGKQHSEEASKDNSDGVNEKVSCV
How it was run: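 CHO cells loaded with calcium dye in HBSS/20 mM HEPES; FLIPR fluorescence recorded after compound addition (10^−10–10^−5 M) for 2 min to detect agonism, then after 3 nM DOI challenge for 5 min for antagonism. Data log transformed before analysis.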

[2] = target: T2, human hNET (Homo sapiens, UniProt P23975); assay: Norepinephrine (NE) uptake assay in MDCK-Net6 cells; assay type: cell-based; conditions: [3H]NE uptake; for inhibition at 1 µM: MDCK-Net6 cells, read-out: hNET Percentage inhibition at 1 μM; for EC50: MDCK-Net6 cells stably transfected with hNET
T2 construct: expressed in transfected cells; host or cells: MDCK (MDCK-Net6)
T2 sequence (P23975 whole entry): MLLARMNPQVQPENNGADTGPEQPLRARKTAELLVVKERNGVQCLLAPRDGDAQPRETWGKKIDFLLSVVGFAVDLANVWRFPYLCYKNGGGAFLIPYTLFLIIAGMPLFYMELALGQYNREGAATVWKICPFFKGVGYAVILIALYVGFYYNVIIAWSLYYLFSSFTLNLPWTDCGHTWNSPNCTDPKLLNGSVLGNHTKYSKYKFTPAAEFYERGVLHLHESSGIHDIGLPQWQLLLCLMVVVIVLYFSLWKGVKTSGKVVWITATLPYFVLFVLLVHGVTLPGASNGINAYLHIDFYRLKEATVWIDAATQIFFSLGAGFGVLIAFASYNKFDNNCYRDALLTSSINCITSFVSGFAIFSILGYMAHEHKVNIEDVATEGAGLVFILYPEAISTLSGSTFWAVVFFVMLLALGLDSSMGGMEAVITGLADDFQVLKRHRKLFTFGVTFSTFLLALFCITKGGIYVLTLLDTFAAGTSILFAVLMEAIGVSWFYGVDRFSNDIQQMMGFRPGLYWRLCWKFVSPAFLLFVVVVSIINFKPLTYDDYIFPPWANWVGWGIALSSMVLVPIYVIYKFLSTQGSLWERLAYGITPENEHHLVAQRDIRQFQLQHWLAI

CCN(CC)C[C@@H](O)[C@H](c1ccccc1)n1ccc2cc(OCc3ccccc3)ccc21 [Example 88, (1S,2R)-1-[5-(benzyloxy)-1H-indol-1-yl]-3-(diethylamino)-1-phenylpropan-2-ol hydrochloride]
inhibition at 1 µM [1]: 33% | inhibition at 1 µM [2]: 21%

CNC[C@@H](O)[C@H](c1ccccc1)n1ccc2cc(Oc3ccccc3)ccc21 [Example 19, (1S,2R)-3-(methylamino)-1-[5-(phenoxy)-1H-indol-1-yl]-1-phenylpropan-2-ol hydrochloride]
inhibition at 1 µM [1]: 39% | inhibition at 1 µM [2]: 27%

CNC[C@@H](O)[C@H](c1ccccc1)N1C(=O)C2(CCCCC2)c2cc(F)ccc21 [Example 30, 5′-fluoro-1′-[(1S,2R)-2-hydroxy-3-(methylamino)-1-phenylpropyl]spiro[cyclohexane-1,3′-indol]-2′(1′H)-one hydrochloride]
IC50 [1]: 0.283 µM | EC50 [2]: 0.041 µM

CNC[C@@H](O)[C@H](c1ccccc1)N1C(=O)C2(CCCCC2)c2c1ccc(F)c2F [Example 109, 4′,5′-difluoro-1′-[(1S,2R)-2-hydroxy-3-(methylamino)-1-phenylpropyl]spiro[cyclohexane-1,3′-indol]-2′(1′H)-one hydrochloride]
IC50 [1]: 1.48 µM | EC50 [2]: 0.107 µM

O[C@H](CN1CCCCC1)[C@H](c1ccccc1)n1ccc2cc(OCc3ccccc3)ccc21 [Example 90, (1S,2R)-1-[5-(benzyloxy)-1H-indol-1-yl]-1-phenyl-3-piperidin-1-ylpropan-2-ol hydrochloride]
inhibition at 1 µM [1]: 25% | inhibition at 1 µM [2]: 12%

CNC[C@@H](O)[C@H](c1ccccc1)N1CC2(CCCCC2)c2ccccc21 [Example 33, (1S,2R)-3-(methylamino)-1-phenyl-1-spiro[cyclohexane-1,3′-indol]-1′(2′H)-ylpropan-2-ol hydrochloride]
inhibition at 1 µM [1]: 13% | EC50 [2]: 0.029 µM

CNC[C@@H](O)[C@H](c1ccccc1)N1C(=O)C2(CCCCC2)c2ccc(C#N)cc21 [Example 108, 1′-[(1S,2R)-2-hydroxy-3-(methylamino)-1-phenylpropyl]-2′-oxo-1′,2′-dihydrospiro[cyclohexane-1,3′-indole]-6′-carbonitrile hydrochloride]
inhibition at 1 µM [1]: 11% | EC50 [2]: 1.26 µM

CCCNC[C@@H](O)[C@H](c1ccccc1)N1C(=O)C2(CCCCC2)c2ccc(F)cc21 [Example 98, 6′-fluoro-1′-[(1S,2R)-2-hydroxy-1-phenyl-3-(propylamino)propyl]spiro[cyclohexane-1,3′-indol]-2′(1′H)-one hydrochloride]
IC50 [1]: 0.672 µM | inhibition at 1 µM [2]: 0%

CNC[C@@H](O)[C@H](c1ccccc1)N1C(=O)C2(CCCCC2)c2ccc(Cl)cc21 [Example 28, 6′-Chloro-1′-[(1S,2R)-2-hydroxy-3-(methylamino)-1-phenylpropyl]spiro[cyclohexane-1,3′-indol]-2′(1′H)-one hydrochloride]
IC50 [1]: 0.213 µM | EC50 [2]: 0.448 µM

CNC[C@@H](O)[C@H](c1ccccc1)n1ccc2cc(OCCc3ccccc3)ccc21 [Example 18, (1S,2R)-3-(methylamino)-1-phenyl-1-[5-(2-phenylethoxy)-1H-indol-1-yl]propan-2-ol hydrochloride]
IC50 [1]: 1.2 µM | EC50 [2]: 0.219 µM

CNC[C@@H](O)[C@H](c1ccccc1)N1C(=O)C2(CCCCC2)c2ccc(F)cc21 [Example 29, 6′-fluoro-1′-[(1S,2R)-2-hydroxy-3-(methylamino)-1-phenylpropyl]spiro[cyclohexane-1,3′-indol]-2′(1′H)-one hydrochloride]
IC50 [1]: 0.106 µM | EC50 [2]: 0.043 µM

CNC[C@@H](O)[C@H](c1ccccc1)n1ccc2cc(NC(=O)c3cccc(Cl)c3)ccc21 [Example 73, 3-Chloro-N-{1-[(1S,2R)-2-hydroxy-3-(methylamino)-1-phenylpropyl]-1H-indol-5-yl}benzamide hydrochloride]
IC50 [1]: 0.625 µM | EC50 [2]: 0.091 µM

CNC[C@@H](O)[C@H](c1ccccc1)n1ccc2cc(OCc3cccc(Cl)c3)ccc21 [Example 9, (1S,2R)-1-{5-[(3-chlorobenzyl)oxy]-1H-indol-1-yl}-3-(methylamino)-1-phenylpropan-2-ol hydrochloride]
inhibition at 1 µM [1]: 39% | EC50 [2]: 0.089 µM

CNC[C@@H](O)[C@H](c1ccccc1)n1ccc2cc(OCc3ccccc3F)ccc21 [Example 11, (1S,2R)-1-{5-[(2-fluorobenzyl)oxy]-1H-indol-1-yl}-3-(methylamino)-1-phenylpropan-2-ol hydrochloride]
IC50 [1]: 1.26 µM | EC50 [2]: 0.052 µM

NC[C@@H](O)[C@H](c1ccccc1)N1C(=O)C2(CCCCC2)c2ccc(F)cc21 [Example 95, 1′-[(1S,2R)-3-amino-2-hydroxy-1-phenylpropyl]-6′-fluorospiro[cyclohexane-1,3′-indol]-2′(1′H)-one hydrochloride]
inhibition at 1 µM [1]: 44% | inhibition at 1 µM [2]: 7%
